# Structures can show the parent of a compound that is named as a salt. Where two headings read alike, the source gives them in different places.
# How the values were obtained:
# M. mycetomatis strain P1 = assay: IC50 and MIC determination, CellTiter-Glo, strain P1; assay type: cell-based, Madurella mycetomatis
# M. mycetomatis [1] = assay: In vitro susceptibility, averages over M. mycetomatis isolates (average metabolic activity at 2 µM, mean MIC); assay type: cell-based; settings: Madurella mycetomatis, 96 h, 4 days at 37°C, CellTiter-Glo, average of 3 isolates, 20% or below = inhibition
# Method: M. mycetomatis isolate MM55 was used to screen the Oncode library. This strain was kindly provided by Prof. […] The three M. mycetomatis isolates were identified by ITS sequencing and maintained at −80°C at Erasmus MC. Prior to in vitro screening, isolates were cultured on Sabouraud agar plates (BD, Erembodegem, Belgium) at 37°C.
# The Oncode Drug Repurposing library was based on the drug repurposing library from the Drug Repurposing Hub of the Broad Institute and recreated by the Oncode institute.[13] […] Each well of the 384-well plates contained 0.6 µL of a 200 µM stock concentration of compound, resulting in a final concentration of 2 µM when the fungus was added. […] Furthermore, this concentration could also be reached in the G. mellonella larvae.[8],[11] The prepared 384-well plates were transferred on dry ice to the Erasmus MC and stored at −80°C until they were screened.
# Each plate also contained a growth control (60 µL of M. mycetomatis hyphal suspension, plus 0.6 µL of DMSO) and a negative control (60 µL of culture medium, plus 0.6 µL of DMSO). Plates were then incubated for 4 days at 37°C, after which 30 µL of CellTiter-Glo 3D Cell Viability reagent was added to every well.[19] After 25 min of incubation at room temperature, the luminescence was measured with a CytoFluor Series 4000 luminometer (PerSeptive Biosystems, Framingham, MA, USA). To determine the metabolic activity, the following formula was used:
# Percentagemetabolicactivity=(Absorbancetestluminensence−AbsorbanceNCluminensence/AbsorbanceGCluminensence−AbsorbanceNCluminensence)×100
# where, GC is growth control and NC is negative control. The luminescence measured for the GC is considered as 100% metabolic activity. The luminescence for the NC is considered as 0% metabolic activity.
# [2] = test system: M. mycetomatis-infected G. mellonella larvae; settings: cited from earlier work
# M. mycetomatis strain I1 = assay: IC50 and MIC determination, CellTiter-Glo, strain I1; assay type: cell-based, Madurella mycetomatis
# [3] = test system: M. mycetomatis strain mm55; assay: IC50 and MIC determination, CellTiter-Glo, strain mm55; assay type: cell-based, Madurella mycetomatis; settings: for IC50: concentration inhibiting 50% of fungal hyphae growth; for MIC: concentration with complete growth inhibition
# [4] = test system: M. mycetomatis MM55-infected G. mellonella larvae; assay: Therapeutic efficacy in M. mycetomatis-infected G. mellonella larvae (survival, log-rank); assay type: in vivo, Galleria mellonella; settings: 10 days
# Method: (§1) For in vivo experiments, sixth-week instar G. mellonella larvae were purchased from Blue-Lagoon, Maassluis, The Netherlands. The larvae were raised and kept in the dark at room temperature. Larvae without any discoloration and weighing around 500 mg were selected for experiments.
# The wet weight was determined and 10 mL of PBS per gram of mycelia was added. The suspension was then sonicated for 2 min to achieve a particle size of 10 µm. The fungal suspension (4 mg/40 µL) was injected into the last left pro-leg of a healthy G. mellonella larva with an insulin 29G U-100 needle to reach a final inoculum of 4 mg/larva. Larvae were placed in Petri dishes containing Whatman paper in a 37°C incubator.
# A control group was also included in which M. mycetomatis-infected larvae were treated with PBS or with 1 mg/kg amphotericin B (Fungizone, Bristol Myers Squibb, Utrecht, The Netherlands). […] The treatment was repeated at 28 h post infection and 52 h post infection via different prolegs. The infection was monitored for 10 days.
# To compare the survival rates between PBS treatment control and the different experimental groups a log-rank test was performed. All data were processed and performed in GraphPad Prism 10.
# [5] = test system: healthy uninfected G. mellonella larvae
# Method: as §1
# To determine the toxicity, 15 healthy uninfected larvae were injected with 20 µL of 20 µM compound as previously described.[16] […] As a control, a separate group of larvae were injected with 20 µL of PBS. Larvae were housed in Petri dishes with Whatman paper at 37°C in the dark. Survival was monitored for 10 days.
# M. mycetomatis [6] = assay: In vitro susceptibility, averages over M. mycetomatis isolates (average metabolic activity at 2 µM, mean MIC); assay type: cell-based, Madurella mycetomatis; settings: for MIC: Madurella mycetomatis, mean/average over strains MM55, P1 and I1
# M. mycetomatis [7] = test system: M. mycetomatis; parameters: method as in PMID 35398930, PMID 15793113, PMID 36005544, PMID 34181477, PMID 22964246; settings: against M. mycetomatis; cited from earlier work
# [8] = 20 µL of 20 µM at 4, 28 and 52 h post infection
# [9] = 20 µL of 10 µM at 4, 28 and 52 h post infection
# [10] = 20 µL of 20 µM injected, 10 day observation, toxic if more than 20% of larvae died
structure (smiles),measurement,setting,value
CC(=O)N1CCN(c2ccc(OCC3COC(Cn4ccnc4)(c4ccc(Cl)cc4Cl)O3)cc2)CC1 (stereo not drawn) [Ketoconazole],IC50,"M. mycetomatis strain P1; Madurella mycetomatis, P1",0.17 µM
same,MIC,"M. mycetomatis strain P1; Madurella mycetomatis, P1",0.25 µM
same,activity at 2 µM,M. mycetomatis [1],0.9%
same,larval survival,[2]; M. mycetomatis-infected G. mellonella larvae,No prolonged larval survival
same,IC50,"M. mycetomatis strain I1; Madurella mycetomatis, I1",0.05 µM
same,MIC,"M. mycetomatis strain I1; Madurella mycetomatis, I1",0.06 µM
same,IC50,[3]; Madurella mycetomatis,0.66 µM
same,MIC,[3]; Madurella mycetomatis,1 µM
Oc1c(Br)cc(Br)c2cccnc12 [Broxyquinoline],Survival of M. mycetomatis-infected larvae versus PBS,[4]; [8],No prolonged survival
same,IC50,"M. mycetomatis strain P1; Madurella mycetomatis, P1",0.56 µM
same,MIC,"M. mycetomatis strain P1; Madurella mycetomatis, P1",2 µM
same,Toxicity in G. mellonella larvae at 20 µM,[5]; in vivo,not toxic
same,activity at 2 µM,M. mycetomatis [1],3.3%
same,IC50,"M. mycetomatis strain I1; Madurella mycetomatis, I1",1.29 µM
same,MIC,"M. mycetomatis strain I1; Madurella mycetomatis, I1",2 µM
same,IC50,[3]; Madurella mycetomatis,1.6 µM
same,MIC,[3]; Madurella mycetomatis,2 µM
Oc1c(I)cc(Cl)c2cccnc12 [Clioquinol],Survival of M. mycetomatis-infected larvae versus PBS,[4]; [8],No prolonged survival
same,IC50,"M. mycetomatis strain P1; Madurella mycetomatis, P1",0.38 µM
same,MIC,"M. mycetomatis strain P1; Madurella mycetomatis, P1",0.5 µM
same,Toxicity in G. mellonella larvae at 20 µM,[5]; in vivo,not toxic
same,activity at 2 µM,M. mycetomatis [1],0%
same,IC50,"M. mycetomatis strain I1; Madurella mycetomatis, I1",1.7 µM
same,MIC,"M. mycetomatis strain I1; Madurella mycetomatis, I1",2 µM
same,IC50,[3]; Madurella mycetomatis,1.2 µM
same,MIC,[3]; Madurella mycetomatis,2 µM
C[CH2][Hg][S]c1ccccc1C(=O)[O-].[Na+] [Thimerosal],Survival of M. mycetomatis-infected larvae versus PBS,[4]; [9],No prolonged survival
same,log-rank P versus PBS treatment,[4]; [9],0.5242
same,IC50,M. mycetomatis strain P1; strain P1,< 0.03 µM
same,MIC,M. mycetomatis strain P1; strain P1,0.03 µM
same,Toxicity in G. mellonella larvae at 20 µM,[5]; [10],toxicity was noted
same,IC50,M. mycetomatis strain I1; strain I1,0.04 µM
same,MIC,M. mycetomatis strain I1; strain I1,0.06 µM
same,Average metabolic activity at 2 µM (%),"M. mycetomatis [6]; 2 µM, 4 days at 37°C, CellTiter-Glo, average of 3 isolates, 20% or below = inhibition",1.4%
same,IC50,[3],0.08 µM
same,MIC,[3],0.25 µM
N#C/C(=C1/SCC(c2ccccc2Cl)S1)n1ccnc1 (stereo not drawn) [Lanoconazole],IC50,"M. mycetomatis strain P1; Madurella mycetomatis, P1",< 0.03 µM
same,MIC,"M. mycetomatis strain P1; Madurella mycetomatis, P1",0.03 µM
same,activity at 2 µM,M. mycetomatis [1],3%
same,IC50,"M. mycetomatis strain I1; Madurella mycetomatis, I1",< 0.03 µM
same,MIC,"M. mycetomatis strain I1; Madurella mycetomatis, I1",0.03 µM
same,MIC50,M. mycetomatis [7],2 ng/mL
same,MIC,M. mycetomatis [6],< 0.03 µM
same,IC50,[3]; Madurella mycetomatis,0.04 µM
same,MIC,[3]; Madurella mycetomatis,0.06 µM
CCCCC(CC)CNC(=N)NC(=N)NCCCCCCNC(=N)NC(=N)NCC(CC)CCCC (stereo not drawn) [Alexidine dihydrochloride],IC50,"M. mycetomatis strain P1; Madurella mycetomatis, P1",1.78 µM
same,MIC,"M. mycetomatis strain P1; Madurella mycetomatis, P1",> 2 µM
same,activity at 2 µM,M. mycetomatis [1],4.4%
same,IC50,"M. mycetomatis strain I1; Madurella mycetomatis, I1",0.8 µM
same,MIC,"M. mycetomatis strain I1; Madurella mycetomatis, I1",> 2 µM
same,MIC,M. mycetomatis [6],> 2 µM
same,IC50,[3]; Madurella mycetomatis,1.32 µM
same,MIC,[3]; Madurella mycetomatis,2 µM
C[C@@H](c1nc(-c2ccc(C#N)cc2)cs1)[C@](O)(Cn1cncn1)c1ccc(F)cc1F [Ravuconazole],IC50,"M. mycetomatis strain P1; Madurella mycetomatis, P1",< 0.03 µM
same,MIC,"M. mycetomatis strain P1; Madurella mycetomatis, P1",0.06 µM
same,activity at 2 µM,M. mycetomatis [1],1.3%
same,larval survival,[2]; only at concentrations higher than used in human patients,Prolonged survival
same,IC50,"M. mycetomatis strain I1; Madurella mycetomatis, I1",< 0.03 µM
same,MIC,"M. mycetomatis strain I1; Madurella mycetomatis, I1",0.03 µM
same,MIC50,M. mycetomatis [7],16 ng/mL
same,IC50,[3]; Madurella mycetomatis,0.17 µM
same,MIC,[3]; Madurella mycetomatis,0.25 µM
CC(C)(C)c1cc(C=C(C#N)C#N)cc(C(C)(C)C)c1O [Tyrphostin 9],Survival of M. mycetomatis-infected larvae versus PBS,[4]; [9],Decreased survival
same,IC50,"M. mycetomatis strain P1; Madurella mycetomatis, P1",1.22 µM
same,MIC,"M. mycetomatis strain P1; Madurella mycetomatis, P1",2 µM
same,Toxicity in G. mellonella larvae at 20 µM,[5]; [10],toxicity was noted
same,activity at 2 µM,M. mycetomatis [1],1.5%
same,IC50,"M. mycetomatis strain I1; Madurella mycetomatis, I1",0.78 µM
same,MIC,"M. mycetomatis strain I1; Madurella mycetomatis, I1",1 µM
same,IC50,[3]; Madurella mycetomatis,1.36 µM
same,MIC,[3]; Madurella mycetomatis,2 µM
C/C(=N\NC(=S)N1CCC1)c1ccccn1 [nsc319726],Survival of M. mycetomatis-infected larvae versus PBS,[4]; [9],No prolonged survival
same,IC50,"M. mycetomatis strain P1; Madurella mycetomatis, P1",0.74 µM
same,MIC,"M. mycetomatis strain P1; Madurella mycetomatis, P1",2 µM
same,Toxicity in G. mellonella larvae at 20 µM,[5]; [10],toxicity was noted
same,activity at 2 µM,M. mycetomatis [1],4.1%
same,IC50,"M. mycetomatis strain I1; Madurella mycetomatis, I1",1.04 µM
same,MIC,"M. mycetomatis strain I1; Madurella mycetomatis, I1",2 µM
same,IC50,[3]; Madurella mycetomatis,1.61 µM
same,MIC,[3]; Madurella mycetomatis,2 µM
"Clc1ccc(C(Cn2ccnc2)OCc2c(Cl)cccc2Cl)c(Cl)c1 (stereo not drawn) [Isoconazole nitrate (Travogen), Isoconazole nitrate]",IC50,"M. mycetomatis strain P1; Madurella mycetomatis, P1",0.06 µM
same,MIC,"M. mycetomatis strain P1; Madurella mycetomatis, P1",0.5 µM
same,activity at 2 µM,M. mycetomatis [1],1.2%
same,IC50,"M. mycetomatis strain I1; Madurella mycetomatis, I1",0.36 µM
same,MIC,"M. mycetomatis strain I1; Madurella mycetomatis, I1",0.5 µM
same,IC50,[3]; Madurella mycetomatis,1.42 µM
same,MIC,[3]; Madurella mycetomatis,2 µM

# From article PMC12670160, “A drug-repurposing screen of FDA- and EMA-approved drugs identifies two NF-κB inhibitors active against eumycetoma” (Journal of Antimicrobial Chemotherapy, 2025)
